Assay results from publication PMC10434001, “Glycosylated, Lipid-Binding, CDR-Like Domains of SARS-CoV-2 ORF8 Indicate Unique Sites of Immune Regulation” (Microbiology Spectrum, 2023).

Tests used:
[1] = test system: glycosylated ORF8 binding to immune monocytes; assay: Immune cell binding assay: peptide inhibition of glycosylated ORF8 binding to monocytes; assay type: cell-based; details: 50 μM peptide with 5 μM FITC-labeled ORF8; human monocytes; 4 h at 37°C; flow cytometry; Fig. 6C and D
[2] = test system: deglycosylated ORF8 binding to immune monocytes; assay: Immune cell binding assay: peptide inhibition of deglycosylated ORF8 binding to monocytes; assay type: cell-based; details: 50 μM peptide with 5 μM FITC-labeled deglycosylated ORF8; human monocytes; 4 h at 37°C; flow cytometry; Fig. 6E and F
[3] = test system: human immune monocytes (from PBMC); assay: Binding of ORF8 protein forms to immune monocytes (flow cytometry); assay type: cell-based
[4] = after deglycosylation (PNGase F); observation during the experiments

TNERLCVRFE [P3, 10-residue peptide derived from IL17RA (aa89-98) designed against ORF8]
inhibition of glycosylated ORF8 binding to immune cells [1]: no significant inhibitory effect
inhibition of deglycosylated ORF8 binding to immune monocytes [2]: significantly inhibited

deglycosylated ORF8: ORF8 protein treated with PNGase F enzyme overnight
binding to immune cells relative to glycosylated ORF8 ([3]; FITC-labeled ORF8, human monocytes, flow cytometry, Fig. 6A and B): 2 fold

delipidated ORF8: ORF8 protein treated with 0.5% Triton X-100 overnight
binding to human immune cells compared with ORF8 with lipid modifications ([3]; co-incubated with human PBMC cells, lipid removed with 0.5% Triton X-100 overnight, Fig. 4G and H): higher percentage of binding

glycosylated ORF8: recombinant SARS-CoV-2 ORF8 (residues 16–121, MBP/His tag) expressed in 293F cells, glycosylated at N78
binding to immune cells ([3]; FITC-labeled ORF8, 5 μM, human monocytes, flow cytometry, Fig. 6A and B): weak binding
solubility of ORF8 [4]: deteriorated
